Test results: patent US6932960B2, “N-substituted 3-hydroxy-4-pyridinones and pharmaceuticals containing thereof” (Bristol-Myers Squibb Pharma Company, priority 2002, dated 2005)

Experiments:
[1] = Zn(II) binding constant (Log KZnL/[Zn][L]), literature values; format: physicochemical; conditions: relative to N-hydroxyacetamide
[2] = Zn(II) binding affinity of the chelator; cited from earlier work

Row | Log KZnL/[Zn][L] fold higher than that of N-hydroxyacetamide [1] | Compound | Log KZnL/[Zn][L] [2]
1 | about 100 fold | Cc1c(O)c(=O)ccn1C [Deferiprone, 1,2-dimethyl-3-hydroxy-4-pyridinone] | 7.19
2 |  | CC(=O)NO [N-hydroxyacetamide] | < 5
